From ChEMBL document CHEMBL1145871, “Design and pharmacology of peptoids and peptide-peptoid hybrids based on the melanocortin agonists core tetrapeptide sequence” (Bioorg Med Chem Lett, 2003)
Activity calls are given as the source filed them. No cut-off for these calls is given here. Where a SMILES comes first, the peptide text is derived from it. [ ]: non-standard residue; d: D form. Gly(N(CH2)2(3-indolyl)) = O=C(O)CNCCc1c[nH]c2ccccc12; Gly(N-CH2CH2-imidazol-4-yl) = O=C(O)CNCCc1c[nH]cn1; N(1-naphthylmethyl)Gly = O=C(O)CNCc1cccc2ccccc12; Gly(N-(CH2)3-guanidino) = N=C(N)NCCCNCC(=O)O; NhArg = N=C(N)NCCCCNCC(=O)O; Nphe = O=C(O)CNCc1ccccc1; Nlys = NCCCCNCC(=O)O

Experiments:
[1] = target: Melanocyte-stimulating hormone receptor (Mus musculus, UniProt Q01727); assay: Agonistic activity evaluated at melanocortin 1 receptor (MC1R) of mouse HEK293 cells; type: functional, cell-based
Melanocortin receptor 4 = Melanocortin receptor 4 (Mus musculus, UniProt P56450); assay: Agonistic activity evaluated at melanocortin 4 receptor (MC4R) of mouse HEK293 cells; type: functional, cell-based
Melanocortin receptor 5 = Melanocortin receptor 5 (Mus musculus, UniProt P41149); assay: Agonistic activity evaluated at melanocortin 5 receptor (MC5R) of mouse HEK293 cells; type: functional, cell-based
[2] = target: Melanocortin receptor 3 (Mus musculus) (UniProt P33033); assay: Percent stimulation at melanocortin 3 receptor (MC3R) of mouse HEK293 cells at a concentration of 100 uM; type: cell-based
Melanocortin receptor 3 = Melanocortin receptor 3 (Mus musculus, UniProt P33033); assay: Agonistic activity evaluated at melanocortin 3 receptor (MC3R) of mouse HEK293 cells; type: functional, cell-based
[3] = target: Melanocortin receptor 4 (Mus musculus) (UniProt P56450); assay: Percent stimulation at melanocortin 4 receptor (MC4R) of mouse HEK293 cells at a concentration of 100 uM; type: cell-based
[4] = target: Melanocortin receptor 3 (Mus musculus) (UniProt P33033); assay: Agonistic activity at melanocortin 3 receptor (MC3R) of mouse HEK293 cells at a concentration of 100 uM; NA=No activity; type: functional, cell-based
[5] = target: Melanocortin receptor 5 (Mus musculus) (UniProt P41149); assay: Percent stimulation at melanocortin 5 receptor (MC5R) of mouse HEK293 cells at a concentration of 100 uM; type: cell-based
[6] = target: Melanocortin receptor 4 (Mus musculus) (UniProt P56450); assay: Agonistic activity at melanocortin 4 receptor (MC4R) of mouse HEK293 cells at a concentration of 100 uM; NA=No activity; type: functional, cell-based

Sequence of Melanocyte-stimulating hormone receptor (Q01727 whole entry): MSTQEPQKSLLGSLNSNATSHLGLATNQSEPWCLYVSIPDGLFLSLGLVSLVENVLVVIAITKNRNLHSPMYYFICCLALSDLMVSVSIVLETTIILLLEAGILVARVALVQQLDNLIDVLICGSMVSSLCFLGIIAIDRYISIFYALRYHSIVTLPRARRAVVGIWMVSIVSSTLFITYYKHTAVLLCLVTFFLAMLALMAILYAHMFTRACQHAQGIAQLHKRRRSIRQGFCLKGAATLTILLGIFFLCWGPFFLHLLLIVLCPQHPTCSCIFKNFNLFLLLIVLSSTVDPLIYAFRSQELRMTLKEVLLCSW
Sequence of Melanocortin receptor 4 (Mus musculus) (P56450 whole entry): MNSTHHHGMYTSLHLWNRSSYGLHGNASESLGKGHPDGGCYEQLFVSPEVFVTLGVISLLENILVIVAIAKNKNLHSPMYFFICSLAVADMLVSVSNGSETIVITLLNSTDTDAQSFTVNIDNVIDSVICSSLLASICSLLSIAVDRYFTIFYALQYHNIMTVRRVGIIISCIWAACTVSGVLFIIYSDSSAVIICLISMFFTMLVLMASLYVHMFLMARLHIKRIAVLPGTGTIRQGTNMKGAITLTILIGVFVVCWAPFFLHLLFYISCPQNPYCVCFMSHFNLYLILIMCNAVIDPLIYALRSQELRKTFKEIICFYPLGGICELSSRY
Sequence of Melanocortin receptor 4 (P56450 whole entry): as above
Sequence of Melanocortin receptor 5 (P41149 whole entry): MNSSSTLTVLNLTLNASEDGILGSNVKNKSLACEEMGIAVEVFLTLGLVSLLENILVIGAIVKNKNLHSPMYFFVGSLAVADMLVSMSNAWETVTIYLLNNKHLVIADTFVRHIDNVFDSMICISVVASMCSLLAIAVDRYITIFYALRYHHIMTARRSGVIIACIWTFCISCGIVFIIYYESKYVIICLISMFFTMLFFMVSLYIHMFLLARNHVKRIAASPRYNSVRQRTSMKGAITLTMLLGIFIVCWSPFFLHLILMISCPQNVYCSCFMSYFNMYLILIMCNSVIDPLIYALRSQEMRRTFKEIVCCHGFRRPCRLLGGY
Sequence of Melanocortin receptor 3 (Mus musculus) (P33033 whole entry): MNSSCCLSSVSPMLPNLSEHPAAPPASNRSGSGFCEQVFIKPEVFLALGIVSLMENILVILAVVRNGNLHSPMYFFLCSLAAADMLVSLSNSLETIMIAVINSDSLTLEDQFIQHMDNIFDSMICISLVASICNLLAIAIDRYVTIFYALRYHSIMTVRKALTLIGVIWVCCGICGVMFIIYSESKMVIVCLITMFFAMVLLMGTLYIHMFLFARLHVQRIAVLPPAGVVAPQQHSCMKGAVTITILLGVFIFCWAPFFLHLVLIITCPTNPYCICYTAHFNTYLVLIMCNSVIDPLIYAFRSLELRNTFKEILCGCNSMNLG
Sequence of Melanocortin receptor 5 (Mus musculus) (P41149 whole entry): as the sequence (P41149 whole entry) above
Sequence of Melanocortin receptor 3 (P33033 whole entry): as the sequence (P33033 whole entry) above

| Compound | EC50 [1] | EC50 (Melanocortin receptor 4) | EC50 (Melanocortin receptor 5) | Stimulation [2] | EC50 (Melanocortin receptor 3) | Stimulation [3] | Stimulation [4] | Stimulation [5] | Stimulation [6] |
| --- | --- | --- | --- | --- | --- | --- | --- | --- | --- |
| CC(=O)N[C@@H](Cc1c[nH]cn1)C(=O)N[C@@H](Cc1ccccc1)C(=O)N[C@@H](CCCN=C(N)N)C(=O)N(CCc1c[nH]c2ccccc12)CC(N)=O (Ac-HFR[Gly(N(CH2)2(3-indolyl))]-NH2) | 0.5 µM | 0.64 µM | 0.056 µM | 70% |  |  |  |  |  |
| CC(=O)N[C@@H](Cc1cnc[nH]1)C(=O)N[C@@H](Cc1ccccc1)C(=O)N(CCCNC(=N)N)CC(=O)N[C@@H](Cc1c[nH]c2ccccc12)C(N)=O (Ac-HF[Gly(N-(CH2)3-guanidino)]W-NH2) | 0.17 µM | 1.1 µM | 0.16 µM |  | 9.2 µM |  |  |  |  |
| CC(=O)N(CCc1c[nH]cn1)CC(=O)N[C@@H](Cc1ccccc1)C(=O)N[C@@H](CCCN=C(N)N)C(=O)N[C@@H](Cc1c[nH]c2ccccc12)C(N)=O (Ac-[Gly(N-CH2CH2-imidazol-4-yl)]FRW-NH2) |  |  |  | 60% |  |  |  |  |  |
| CC(=O)N[C@@H](Cc1cnc[nH]1)C(=O)N(CC(=O)N[C@@H](CCCNC(=N)N)C(=O)N[C@@H](Cc1c[nH]c2ccccc12)C(N)=O)Cc1ccccc1 | 48 µM |  |  |  |  |  |  |  |  |
| CC(=O)N[C@@H](Cc1c[nH]cn1)C(=O)N(CC(=O)N[C@@H](CCCN=C(N)N)C(=O)N[C@@H](Cc1c[nH]c2ccccc12)C(N)=O)Cc1ccccc1 |  |  |  |  |  | 20% | inactive | 40% |  |
| CC(=O)N(CC(=O)N[C@@H](Cc1ccccc1)C(=O)N[C@@H](CCCN=C(N)N)C(=O)N[C@@H](Cc1c[nH]c2ccccc12)C(N)=O)Cc1ccccc1 (Ac-[Nphe]FRW-NH2) | 0.78 µM | 0.26 µM | 0.36 µM | 25% |  |  |  |  |  |
| CC(=O)N(CCc1c[nH]cn1)CC(=O)N(CC(=O)N(CCCCN)CC(=O)N(CCc1c[nH]c2ccccc12)CC(N)=O)Cc1ccccc1 (Ac-[Gly(N-CH2CH2-imidazol-4-yl)][Nphe][Nlys][Gly(N(CH2)2(3-indolyl))]-NH2) | 27 µM | 27.2 µM | 7.38 µM | 75% |  |  |  |  |  |
| CC(=O)N(CC(=O)N(CC(=O)N(CCCCN=C(N)N)CC(=O)N(CC(N)=O)Cc1cccc2ccccc12)Cc1ccccc1)Cc1ccccc1 (Ac-[Nphe][Nphe][NhArg][N(1-naphthylmethyl)Gly]-NH2) | 7.6 µM |  | 20 µM | 55% |  |  |  |  | inactive |
| CC(=O)N(CCc1c[nH]cn1)CC(=O)N(CC(=O)N(CCCN=C(N)N)CC(=O)N(CCc1c[nH]c2ccccc12)CC(N)=O)Cc1ccccc1 (Ac-[Gly(N-CH2CH2-imidazol-4-yl)][Nphe][Gly(N-(CH2)3-guanidino)][Gly(N(CH2)2(3-indolyl))]-NH2) | 6.6 µM |  | 5.3 µM | 55% |  | 65% |  |  |  |
| CC(=O)N(CCc1cnc[nH]1)CC(=O)N[C@@H](Cc1ccccc1)C(=O)N[C@@H](CCCNC(=N)N)C(=O)N[C@@H](Cc1c[nH]c2ccccc12)C(N)=O (Ac-[Gly(N-CH2CH2-imidazol-4-yl)]FRW-NH2) | 1.7 µM | 0.88 µM | 0.53 µM |  |  |  |  |  |  |
